# In US8609672B2, “Piperazinylpyrimidine analogues as protein kinase inhibitors” (University of the Pacific, priority 2010, dated 2013):
# Legend:
# COLO 205 = assay: NCI-60 SRB growth inhibition: COLO 205; assay type: cell-based, human; details: COLO 205, Colon cancer, 48 hours treatment; for CC50: Homo sapiens, read-out: LC50 (the source's name)
# HL-6O(TB) = assay: NCI-60 SRB growth inhibition: HL-6O(TB); assay type: cell-based, human; details: Leukemia, 48 hours treatment
# SK-MEL-5 = assay: NCI-60 SRB growth inhibition: SK-MEL-5; assay type: cell-based, human; details: SK-MEL-5, Melanoma; 48 hours treatment
# OVCAR-4 = assay: NCI-60 SRB growth inhibition: OVCAR-4; assay type: cell-based, human; details: OVCAR-4, Ovarian cancer, 48 hours treatment; for CC50: Homo sapiens, read-out: LC50 (the source's name)
# M14 = assay: NCI-60 SRB growth inhibition: M14; assay type: cell-based, human; details: M14, Melanoma, 48 hours treatment; for CC50: Homo sapiens, read-out: LC50 (the source's name)
# NCI-H522 = assay: NCI-60 SRB growth inhibition: NCI-H522; assay type: cell-based, human; details: NCI-H522, Non-small cell lung cancer; 48 hours treatment
# RPMI-8226 = assay: NCI-60 SRB growth inhibition: RPMI-8226; assay type: cell-based, human; details: RPMI-8226, Leukemia, 48 hours treatment; for CC50: Homo sapiens, read-out: LC50 (the source's name)
# SF-539 = assay: NCI-60 SRB growth inhibition: SF-539; assay type: cell-based, human; details: SF-539, CNS cancer; 48 hours treatment
# SK-MEL-2 = assay: NCI-60 SRB growth inhibition: SK-MEL-2; assay type: cell-based, human; details: SK-MEL-2, Melanoma; 48 hours treatment
# SF-295 = assay: NCI-60 SRB growth inhibition: SF-295; assay type: cell-based, human; details: for CC50: Homo sapiens, SF-295, 48 h, read-out: LC50 (the source's name); for TGI: SF-295, CNS cancer, 48 hours treatment
# K-562 = assay: NCI-60 SRB growth inhibition: K-562; assay type: cell-based, human; details: K-562, Leukemia, 48 hours treatment; for CC50: Homo sapiens, K562, read-out: LC50 (the source's name)
# NCI-H322M = assay: NCI-60 SRB growth inhibition: NCI-H322M; assay type: cell-based, human; details: Non-small cell lung cancer, 48 hours treatment
# OVCAR-3 = assay: NCI-60 SRB growth inhibition: OVCAR-3; assay type: cell-based, human; details: OVCAR-3, Ovarian cancer; 48 hours treatment
# UACC-62 = assay: NCI-60 SRB growth inhibition: UACC-62; assay type: cell-based, human; details: UACC-62, Melanoma; 48 hours treatment
# DU-145 = assay: NCI-60 SRB growth inhibition: DU-145; assay type: cell-based, human; details: for TGI: DU-145, Prostate cancer, 48 hours treatment; for CC50: Homo sapiens, DU-145, 48 h, read-out: LC50 (the source's name)
# HOP-62 = assay: NCI-60 SRB growth inhibition: HOP-62; assay type: cell-based, human; details: HOP-62, Non-small cell lung cancer; 48 hours treatment
# SK-MEL-28 = assay: NCI-60 SRB growth inhibition: SK-MEL-28; assay type: cell-based, human; details: SK-MEL-28, Melanoma, 48 hours treatment; for CC50: Homo sapiens, read-out: LC50 (the source's name)
# CSNK1D = target: T1, CSNK1D (Homo sapiens, UniProt P48730); assay: Kinase binding screening: CSNK1D; details: 10 μM compound, read-out: B-POC (binding percentage of control)
# T1 construct: purchased Ambit Bioscience (assay service)
# Description: Biotinylated kinase ligand was immobilized onto streptavidin coated magnetic beads and washed with blocking buffer. The liganded beads were then incubated with DNA-tagged kinase in the presence of test compound for 1 h at room temperature. Binding reactions were carried out in 20% Seablock, 0.17×PBS, 0.005% Tween 20, 6 mM DTT, in a final volume of 0.04 mL. Beads were then washed with wash buffer (PBS, 0.05% Tween 20), and then incubated with elution buffer (PBS, 0.05% Tween […] non-biotinylated kinase ligand) and eluted. The kinase concentration in the eluate was then measured by quantitative PCR. […] The results of this single dose screening are reported in the form of binding percentage of control (B-POC) which is defined as follows:
# [formula] The negative control signal is obtained by the vehicle and corresponds to B-POC=100%. The positive signal control is detected by a binding positive compound and is B-POC 0%. The B-POC results are the average of duplicate measurements. Only interactions with […] were considered significant and thus used for calculating the selectivity scores (Table 1) of the test compounds as follows:
# [formula] […] The Kd is then calculated according to the following equation:
# [formula] hill slope=−1. A non-linear least square fit with the Levenberg-Marquardt algorithm was implemented to fit the curves (FIG. 3). Kinase binding assays were performed by Ambit Bioscience (San Diego, Calif., USA).
# The results of kinase binding assay are shown in Table 1, which includes the B-POC values of 10 μM of compounds 4, 15, and 16 against the most sensitive kinases tested within this binding experiment. […] Kinases within the same subfamily are highlighted. […] Both the B-POC and Kd values are the average of duplicate measurements.
# J. et al. Bioorganic and Medicinal Chemistry Letters 2009, 19, 1206-1209; Chao, Q. et al. Journal of Medicinal Chemistry 2009, 52, 7808-7816.). A single dose of 10 μM was chosen to allow for detecting kinases able to bind to the test compounds. In this binding assay, a set of 243 kinases were included. […]
# OVCAR-5 = assay: NCI-60 SRB growth inhibition: OVCAR-5; assay type: cell-based, human; details: OVCAR-5, Ovarian cancer, 48 hours treatment; for CC50: Homo sapiens, read-out: LC50 (the source's name)
# T1 sequence (P48730 whole entry): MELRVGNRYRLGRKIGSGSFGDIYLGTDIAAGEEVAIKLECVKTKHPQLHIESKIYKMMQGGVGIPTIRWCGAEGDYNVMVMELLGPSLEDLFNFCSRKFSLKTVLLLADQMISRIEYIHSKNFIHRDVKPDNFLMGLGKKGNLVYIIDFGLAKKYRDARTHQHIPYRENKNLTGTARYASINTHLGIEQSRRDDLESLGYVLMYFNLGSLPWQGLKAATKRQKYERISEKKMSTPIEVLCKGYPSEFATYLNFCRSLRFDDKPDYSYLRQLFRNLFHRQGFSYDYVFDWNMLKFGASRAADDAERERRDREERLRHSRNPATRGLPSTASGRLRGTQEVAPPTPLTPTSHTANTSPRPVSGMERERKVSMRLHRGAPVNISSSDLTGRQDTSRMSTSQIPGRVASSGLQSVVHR
SMILES,TGI (COLO 205) [µM],CC50 (COLO 205) [µM],TGI (HL-6O(TB)) [µM],TGI (SK-MEL-5) [µM],CC50 (OVCAR-4) [µM],TGI (OVCAR-4) [µM],CC50 (M14) [µM],TGI (M14) [µM],TGI (NCI-H522) [µM],CC50 (RPMI-8226) [µM],TGI (RPMI-8226) [µM],TGI (SF-539) [µM],TGI (SK-MEL-2) [µM],CC50 (SF-295) [µM],TGI (SF-295) [µM],CC50 (K-562) [µM],TGI (K-562) [µM],TGI (NCI-H322M) [µM],TGI (OVCAR-3) [µM],TGI (UACC-62) [µM],also measured
"c1ccc(Cc2cnc(N3CCN(c4ncnc5ccccc45)CC3)nc2)cc1 [Compound 4, 4-(4-(5-benzylpyrimidin-2-yl)piperazin-1-yl)quinazoline]",>100,> 100,41.80,13.90,> 100,>100,51.6,26.30,40.30,97.3,21.80,28.50,35.80,> 100,26.00,> 100,>100,>100,23.20,25.90,TGI (DU-145): 30.70 µM; CC50 (DU-145): 79.8 µM; TGI (HOP-62): 51.60 µM; CC50 (SK-MEL-28): > 100 µM; TGI (SK-MEL-28): 99.30 µM; remaining activity at 10 µM (CSNK1D): 26%; CC50 (OVCAR-5): > 100 µM; TGI (OVCAR-5): 69.80 µM
"CCc1cnc(N2CCN(C(=O)c3ccc(CNc4ncnc5ccccc45)cc3)CC2)nc1 [Compound 15, (4-(5-ethylpyrimidin-2-yl)piperazin-1-yl)(4-((quinazolin-4-ylamino)methyl)phenyl)methanone]",38.20,> 100,38.60,2.90,> 100,58.80,93.7,32.70,55.40,> 100,14.30,>100,>100,> 100,23.10,> 100,>100,>100,>100,80.90,TGI (DU-145): >100 µM; CC50 (DU-145): > 100 µM; TGI (HOP-62): >100 µM; CC50 (SK-MEL-28): > 100 µM; TGI (SK-MEL-28): >100 µM; remaining activity at 10 µM (CSNK1D): 23%; CC50 (OVCAR-5): > 100 µM; TGI (OVCAR-5): >100 µM
"O=C(c1cccc(Nc2ncnc3ccccc23)c1)N1CCN(c2ncc(Cc3ccccc3)cn2)CC1 [Compound 16, (4-(5-benzylpyrimidin-2-yl)piperazin-1-yl)(3-(quinazolin-4-ylamino)phenyl)methanone]",2.75,5.5,1.54,1.20,7.59,1.95,4.68,2.14,2.09,3.89,0.60,4.90,2.69,> 100,2.24,> 100,2.23,4.79,8.13,1.86,TGI (DU-145): 6.46 µM; CC50 (DU-145): > 100 µM; TGI (HOP-62): 3.47 µM; CC50 (SK-MEL-28): 5.25 µM; TGI (SK-MEL-28): 2.82 µM; remaining activity at 10 µM (CSNK1D): 22%; CC50 (OVCAR-5): > 100 µM; TGI (OVCAR-5): 5.75 µM
